These results are taken from US20120165331A1, “Di/tri-aza-spiro-C9-C11alkanes” (priority 2010, published 2012).

The structures appear in SMILES notation. Bounds are passed on as bounds.

One assay deals with T1, human orexin 1 receptor (Homo sapiens, UniProt O43613).
T1 construct: expressed in transfected cells
T1 sequence (O43613 1-425): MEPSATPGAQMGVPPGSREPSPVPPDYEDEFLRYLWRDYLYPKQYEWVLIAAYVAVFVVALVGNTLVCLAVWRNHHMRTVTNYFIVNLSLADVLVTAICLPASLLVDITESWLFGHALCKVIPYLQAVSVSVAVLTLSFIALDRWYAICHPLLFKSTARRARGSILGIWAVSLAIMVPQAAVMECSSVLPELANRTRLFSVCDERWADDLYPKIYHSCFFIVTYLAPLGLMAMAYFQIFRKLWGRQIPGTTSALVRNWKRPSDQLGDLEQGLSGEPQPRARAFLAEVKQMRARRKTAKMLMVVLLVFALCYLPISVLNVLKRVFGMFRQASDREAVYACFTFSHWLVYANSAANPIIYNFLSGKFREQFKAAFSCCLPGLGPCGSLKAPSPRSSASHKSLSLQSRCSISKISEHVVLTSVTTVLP
The experiment in a line: Calcium accumulation in cells (FLIPR), antagonism of orexin A, human orexin 1 receptor. The assay is classed as cell-based. Particulars: for Ki: calcium accumulation, antagonism of orexin A, Cheng-Prusoff corrected, read-out: FLIPR hOx1R Ki; for inhibition at 10 µM: measured at a concentration of 10 μM of compound, read-out: FLIPR hOx1R % inhibition. The method, then: (§1) Calcium Accumulation in Cells (FLIPR):
(§2) Cells expressing human orexin 1 or human orexin 2 receptors, were seeded at 8,000 cells/well in 384 well black-walled clear bottom, poly-D-lysine coated plates. After 24 h, the medium was removed and cells were washed once with phosphate buffered saline and serum-deprived overnight in assay buffer (130 mM NaCl, 5.4 mM KCl, 1.8 mM CaCl2, 0.8 mM MgSO4, 0.9 mM NaH2PO4, 25 mM glucose, 20 mM HEPES, pH 7.4) containing bovine serum albumin (1% w/v).
(§3) On the day of the experiment, the cells seeded in black plates were treated with assay buffer containing the Ca^2+ sensitive fluorescent dye Fluo-4-AM (2 μM), and probenecid (0.1 mM). After 1 h plates were washed twice with, and resuspended in, assay buffer containing probenecid (0.1 mM) using a multi plate washer. The plates were placed into a FLIPR II (Fluorometric Imaging Plate Reader, Molecular Devices, Sunnyvale, Calif., USA) and baseline fluorescence (fluorescence light units, FLU) was measured (5 measurements, 2 S each; laser excitation 488 nm at 0.6-1 W, CCD camera exposure 0.4 s) before addition of buffer alone (basal) or containing test compounds (either compound of formula I alone, agonist alone or agonist in the presence of various concentrations of compounds of formula I). Fluorescence measurements were then continued every 1 S for 120 S followed by every 4 S for 240 S.
(§4) The measurements were typically made in two sequences:
(§5) Compounds of formula I were tested usually in a concentration range from 10^−9 M to 10^−5 M.
(§6) In the second round, performed one hour later (to allow for equilibration), Orexin A was tested either in the absence (calibration curves, Orexin A agonist controls) or in the presence of compounds of formula Ito determine antagonism.
(§7) Inhibition data is expressed in Table 1 as Kd [μM], converted by the Cheng and Prusoff correction (Kd=IC50/1+(L/EC50)), where IC50 is the 50% inhibition value determined in concentration response inhibition curves, EC50 is the half maximal activation concentration determined for orexin A in concentration response curves and L is the concentration of orexin A used in inhibition experiments performed in with a submaximal concentration of orexin A in the presence of up to 8 increasing concentrations of compound of formula I. Inhibition data is also expressed in Table 1 as % inhibition value measured at a concentration of 10 μM of selected compounds of formula I.

A further assay addresses T2, human orexin 2 receptor (Homo sapiens, UniProt O43614).
T2 construct: expressed in transfected cells
T2 sequence (O43614 1-444): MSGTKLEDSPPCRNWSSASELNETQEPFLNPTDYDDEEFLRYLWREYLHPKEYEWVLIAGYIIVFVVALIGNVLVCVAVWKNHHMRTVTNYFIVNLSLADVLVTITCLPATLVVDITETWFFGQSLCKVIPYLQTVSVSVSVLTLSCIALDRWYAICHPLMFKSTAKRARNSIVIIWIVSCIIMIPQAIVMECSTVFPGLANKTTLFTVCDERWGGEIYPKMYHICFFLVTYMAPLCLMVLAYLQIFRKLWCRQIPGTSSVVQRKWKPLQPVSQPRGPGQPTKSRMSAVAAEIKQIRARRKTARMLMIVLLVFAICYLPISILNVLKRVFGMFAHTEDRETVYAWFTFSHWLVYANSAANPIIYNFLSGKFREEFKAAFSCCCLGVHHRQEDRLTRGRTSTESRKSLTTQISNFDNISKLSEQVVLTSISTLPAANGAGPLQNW
Briefly: Calcium accumulation in cells (FLIPR), antagonism of orexin A, human orexin 2 receptor. It is filed as cell-based. Particulars: calcium accumulation, antagonism of orexin A, Cheng-Prusoff corrected; read-out: FLIPR hOx2R Ki. How it is done:
as §1, §2, §3, §4, §5, §6, §7

As to `O=C1N(Cc2c[nH]c3ccccc23)CCC12CCN(c1nc3ccccc3o1)C2` (stereo not shown) [Example 5.8, 2-((1H-Indol-3-yl)methyl)-7-(benzo[d]oxazol-2-yl)-2,7-diazaspiro[4.4]nonan-1-one], the Ki at human orexin 1 receptor was 739 nM; at human orexin 2 receptor it was 304 nM.

Regarding `Cc1csc(N2CCC3(CCN(Cc4c[nH]c5ccccc45)C3=O)C2)n1` (stereo not shown) [Example 5.37, 2-((1H-indol-3-yl)methyl)-7-(4-methylthiazol-2-yl)-2,7-diazaspiro[4.4]nonan-1-one], the Ki stood at 3590 nM on human orexin 1 receptor and 1410 nM on human orexin 2 receptor.

As for `Cc1cn2ccnc(N3CCC4(CCN(Cc5c[nH]c6ccccc56)C4=O)C3)c2n1` (stereo not shown) [Example 5.40, 2-((1H-indol-3-yl)methyl)-7-(2-methylimidazo[1,2-a]pyrazin-8-yl)-2,7-diazaspiro[4.4]nonan-1-one], the Ki on human orexin 1 receptor worked out at 1730 nM; at human orexin 2 receptor, 188 nM.

`COc1cc(C)nc(N2CCC3(CC2)NCCN(Cc2nc(C)oc2-c2ccccc2)C3=O)n1` [Example 1.23, 9-(4-Methoxy-6-methylpyrimidin-2-yl)-4-((2-methyl-5-phenyloxazol-4-yl)methyl)-1,4,9-triazaspiro[5.5] undecan-5-one]: the values for the inhibition constant (Ki) on human orexin 1 receptor and on human orexin 2 receptor were 2110 nM and 192 nM, respectively.

Turning to `Cc1cncc(N2CCC3(CC2)COC(=O)N3Cc2cccc3[nH]ccc23)n1` [Example 8.25, 1-((1H-Indol-4-yl)methyl)-8-(6-methylpyrazin-2-yl)-3-oxa-1,8-diazaspiro[4.5]decan-2-one], the inhibition at 10 µM at human orexin 1 receptor was below 10%. Further, the Ki at human orexin 2 receptor was 675 nM.

Take `COc1ccnc(N2CCC3(CCN(Cc4c[nH]c5ccccc45)C3=O)C2)c1` (stereo not shown) [Example 5.30, 2-((1H-indol-3-yl)methyl)-7-(4-methoxypyridin-2-yl)-2,7-diazaspiro[4.4]nonan-1-one]: the Ki on human orexin 1 receptor was 4350 nM; on human orexin 2 receptor, 193 nM.

Consider `Cc1cncc(N2CCC3(CCC(=O)N3Cc3cccc4[nH]ccc34)CC2)n1` [Example 8.2, 1-((1H-Indol-4-yl)methyl)-8-(6-methylpyrazin-2-yl)-1,8-diazaspiro[4.5]decan-2-one], for which the inhibition at 10 µM on human orexin 1 receptor came to 12%. Besides, the Ki on human orexin 2 receptor was 133 nM.

With `Cc1cc(C)nc(N2CCC3(CCN(Cc4ccccc4-c4nc(C)no4)C3=O)CC2)n1` [Example 3.19, 8-(4,6-Dimethyl-pyrimidin-2-yl)-2-[2-(3-methyl-[1,2,4]oxadiazol-5-yl)-benzyl]-2,8-diaza-spiro[4.5]decan-1-one], the inhibition at 10 µM at human orexin 1 receptor is 22%. The Ki on human orexin 2 receptor was 127 nM.

As for `COc1nc(C)cc(N2CCC3(CC2)NCCN(Cc2c[nH]c4ccccc24)C3=O)n1` [Example 1.66, 4-((1H-indol-3-yl)methyl)-9-(2-methoxy-6-methyl-pyrimidin-4-yl)-1,4,9-triazaspiro[5.5] undecan-5-one], the figures for the Ki on human orexin 1 receptor and on human orexin 2 receptor were 3920 nM and 632 nM, respectively.

Regarding `Cc1ccnc(N2CCC3(CCN(Cc4c[nH]c5ccccc45)C3=O)C2)c1` (stereo not shown) [Example 5.28, 2-((1H-indol-3-yl)methyl)-7-(4-methylpyridin-2-yl)-2,7-diazaspiro[4.4]nonan-1-one], the inhibition at 10 µM on human orexin 1 receptor was found to be 34%. Besides, on human orexin 2 receptor, the Ki was found to be 182 nM.

`CCc1ccnc(N2CCC3(CC2)OCCN(Cc2c[nH]c4ccccc24)C3=O)n1` [Example 2.22, 4-((1H-indol-3-yl)methyl)-9-(4-ethylpyrimidin-2-yl)-1-oxa-4,9-diazaspiro[5.5]undecan-5-one]: the Ki amounted to 2780 nM at human orexin 1 receptor and 251 nM on human orexin 2 receptor.

As to `COc1ccnc(N2CCC3(CCN(Cc4n[nH]c5ccccc45)C3=O)C2)n1` (stereo not shown) [Example 5.12, 2-((1H-Indazol-3-yl)methyl)-7-(4-methoxypyrimidin-2-yl)-2,7-diazaspiro[4.4]nonan-1-one], the inhibition at 10 µM at human orexin 1 receptor came to 40%. Besides, the Ki at human orexin 2 receptor came out at 711 nM.

`COc1ccnc(N2CCC3(CC2)NCCN(Cc2c[nH]c4ccccc24)C3=O)n1` [Example 1.7, 4-((1H-Indol-3-yl)methyl)-9-(4-methoxypyrimidin-2-yl)-1,4,9-triazaspiro[5.5] undecan-5-one]: the inhibition at 10 µM on human orexin 1 receptor came to 35%. On human orexin 2 receptor, the Ki was found to be 101 nM.

In the case of `COc1ccnc(N2CCC3(CCN(Cc4c[nH]c5ccccc45)C3=O)CC2)n1` [Example 3.14, 2-(1H-Indol-3-ylmethyl)-8-(4-methoxy-pyrimidin-2-yl)-2,8-diaza-spiro[4.5]decan-1-one], the Ki on human orexin 1 receptor is 2770 nM; at human orexin 2 receptor, 134 nM.

Regarding `COc1cc(N2CCC3(CCN(Cc4c[nH]c5ccccc45)C3=O)C2)n2nccc2n1` (stereo not shown) [Example 5.38, 2-((1H-indol-3-yl)methyl)-7-(5-methoxypyrazolo[1,5-a]pyrimidin-7-yl)-2,7-diazaspiro[4.4]nonan-1-one], the figures for the Ki at human orexin 1 receptor and on human orexin 2 receptor were 2410 nM and 1020 nM, respectively.

Take `COc1ccnc(N2CCC3(CCCN(Cc4n[nH]c5ccccc45)C3=O)C2)n1` (stereo not shown) [Example 7.3, 7-((1H-Indazol-3-yl)methyl)-2-(4-methoxypyrimidin-2-yl)-2,7-diazaspiro[4.5]decan-6-one]: the inhibition constant (Ki) at human orexin 1 receptor came to 1430 nM; on human orexin 2 receptor, 234 nM.

As for `COc1ccnc(N2CCC3(CCCN(Cc4c[nH]c5ncccc45)C3=O)C2)n1` (stereo not shown) [Example 7.2, 7-((1H-Pyrrolo[2,3-b]pyridin-3-yl)methyl)-2-(4-methoxypyrimidin-2-yl)-2,7-diazaspiro[4.5]decan-6-one], the Ki turned out to be 3200 nM on human orexin 1 receptor and 703 nM on human orexin 2 receptor.

Consider `O=C1N(Cc2c[nH]c3ccccc23)CCCC12CCN(c1nc3ccccc3o1)C2` (stereo not shown) [Example 7.8, 7-((1H-Indol-3-yl)methyl)-2-(benzo[d]oxazol-2-yl)-2,7-diazaspiro[4.5]decan-6-one], for which the figures for the Ki at human orexin 1 receptor and on human orexin 2 receptor were 98 nM and 168 nM, respectively.

As to `O=C1N(Cc2c[nH]c3ccccc23)CCC12CCN(c1nc3ccccc3[nH]1)CC2` [Example 3.12, 8-(1H-Benzoimidazol-2-yl)-2-(1H-indol-3-ylmethyl)-2,8-diaza-spiro[4.5]decan-1-one], the inhibition constant Ki was 4970 nM on human orexin 1 receptor and 376 nM on human orexin 2 receptor.

As for `COCc1cccc(-c2ocnc2CN2CCNC3(CCN(c4nc(C)cc(C#N)n4)CC3)C2=O)c1` [Example 1.28, 2-(4-((5-(3-(Methoxymethyl)phenyl)oxazol-4-yl)methyl)-5-oxo-1,4,9-triazaspiro[5.5]undecan-9-yl)-6-methylpyrimidine-4-carbonitrile], at human orexin 1 receptor, the inhibition at 10 µM amounted to 33%. Further, the Ki at human orexin 2 receptor came out at 511 nM.

Consider `O=C1N(Cc2ccccc2-c2ccccc2)CCC12CCN(c1cnc3ccccc3n1)CC2` [Example 3.6, 2-(biphenyl-2-ylmethyl)-8-(quinoxalin-2-yl)-2,8-diazaspiro[4.5]decan-1-one], for which the Ki at human orexin 1 receptor was 1630 nM; at human orexin 2 receptor it was 784 nM.

Consider `O=C1N(Cc2ccccc2-c2ccccc2)CCC12CCN(c1nc3ccccc3s1)CC2` [Example 3.10, 8-(Benzo[d]thiazol-2-yl)-2-(biphenyl-2-ylmethyl)-2,8-diazaspiro[4.5]decan-1-one], for which the Ki on human orexin 2 receptor came to 1080 nM.

By Ki is commonly meant a dissociation constant, usually derived from enzyme kinetics or from competition with a known ligand. A word on the inhibition: it is the relative decrease from the control value, in per cent.
